What all share (assay type): nucleic-acid assay
For assay [1], the system named is Nucleic Acid. Put plainly: Binding affinity to human telomeric G-quadruplex DNA at 200 uM after 1 hr by ESI-TOF-MS analysis.
Assay [2] concerns Nucleic Acid. As to the kind of experiment: Binding affinity to human telomeric G-quadruplex DNA assessed as bathochromic shift at 10 uM at pH 7.6 by UV-Vis spectrophotometric analysis.
The subject of assay [3] is Nucleic Acid. As to the kind of experiment: Binding affinity to human telomeric G-quadruplex DNA assessed as hypochromic effect at 10 uM at pH 7.6 by UV-Vis spectrophotometric analysis.
Assay [4] has as its system Nucleic Acid. Put plainly: Binding affinity to human telomeric DNA AGGGTTAGGGT at 200 uM after 1 hr by ESI-TOF-MS analysis.

The structures appear in SMILES notation. Active and inactive are the calls of the source. No cut-off for these calls is given here.

In turn, `COc1ccc2cc3[n+](cc2c1OC)CCc1cc2c(cc1-3)OCO2` yielded an Activity in the assay with Nucleic Acid [1] of 58.9%. The same measure, in the same setting: the same measure for `CC(C)=CC[C@@H](O)C1=CC(=O)c2c(O)ccc(O)c2C1=O`: 0%.

For the molecule `CC(=O)N[C@H]1[C@H](O[C@H](CC=C(C)C)C2=CC(=O)c3c(O)ccc(O)c3C2=O)O[C@H](CO)[C@@H](O)[C@@H]1O`, the Activity was found to be 47% in the assay on Nucleic Acid [1], 32.8% in the assay with Nucleic Acid [3] and 16% in the assay on Nucleic Acid [4]. For the same molecule, the outcome in the assay with Nucleic Acid [2] was Active.

In the case of `CC(C)=CC[C@H](O)C1=CC(=O)c2c(O)ccc(O)c2C1=O`, the Activity with Nucleic Acid [1] was determined as 0%. The same measure, in the same setting: the same measure for `CC(=O)N[C@H]1[C@H](O[C@@H](CC=C(C)C)C2=CC(=O)c3c(O)ccc(O)c3C2=O)O[C@H](CO)[C@@H](O)[C@@H]1O`: 39.3%.

The values above are taken from ChEMBL document CHEMBL1949616, “Synthesis and human telomeric G-quadruplex DNA-binding activity of glucosaminosides of shikonin/alkannin” (Bioorg Med Chem Lett, 2012).
